Consider one compound from PMC12224939, “Trypstatin as a Novel TMPRSS2 Inhibitor with Broad‐Spectrum Efficacy against Corona and Influenza Viruses” (Advanced Science, 2025).

Structures are written as SMILES. Counter-ions that a name gives are not always drawn. Like-named read-outs stand apart in the source and are kept apart here.

Assay [1] concerns lentiviral pseudoparticles harboring the SARS-CoV-1 spike. As to the kind of experiment: microbe, parasite or virus in culture. The following applies: Severe acute respiratory syndrome coronavirus, Caco-2, read-out: anti-viral IC50 (±SEM), SARS-CoV-1 pp.
For assay [2], the system named is lentiviral pseudoparticles harboring the MERS-CoV spike. As to the kind of experiment: microbe, parasite or virus in culture. The following applies: Middle East respiratory syndrome-related coronavirus.

For `CN(C)C(=O)COC(=O)Cc1ccc(OC(=O)c2ccc(NC(=N)N)cc2)cc1` [Camostat mesylate], the half-maximal inhibitory concentration (IC50) in assay [1] amounted to 71.1 ± 8 nM; in assay [2] (Caco-2, 48 h, read-out: IC50, MERS-CoV spike pseudoparticles), 50 nM; in assay [2] (Caco-2, read-out: anti-viral IC50 (±SEM), MERS-CoV pp), 49.9 ± 19 nM.

Usually IC50 stands for the point on the concentration scale where inhibition reaches its midpoint.
